The nature of data set [1]: Clearance in rat. The conditions noted are these: in vivo. In kind it is ADME.
The nature of data set [2]: Half life in rat. The format is ADME. The conditions noted are these: in vivo.
Data set [3] in a line: AUC in rat. The format is ADME. As to conditions: in vivo.
Data set [4] concerns Pseudomonas aeruginosa. Put plainly: Antimicrobial activity against Pseudomonas aeruginosa. In kind it is functional.
A further data set relates to Enterococcus faecalis. The experiment in a line: Antimicrobial activity against Enterococcus faecalis. The format is functional.
For data set [5], the system named is Candida albicans. The experiment in a line: Antifungal activity against Candida albicans. In kind it is functional.
In the next data set the test system is Candida tropicalis. Put plainly: Antifungal activity against Candida tropicalis. The format is functional.
The subject of the next data set is Proteus vulgaris. Put plainly: Antimicrobial activity against Proteus vulgaris. The format is functional.
The test system of data set [6] is Bacillus subtilis. Put plainly: Antimicrobial activity against Bacillus subtilis. In kind it is functional.
A further data set deals with Klebsiella pneumoniae. The experiment in a line: Antimicrobial activity against Klebsiella pneumoniae. In kind it is functional.
A further data set deals with Listeria monocytogenes. Put plainly: Antimicrobial activity against Listeria monocytogenes. In kind it is functional.
Data set [7] relates to Staphylococcus aureus. The experiment in a line: Antimicrobial activity against Staphylococcus aureus. The format is functional.
The next data set has as its system Nakaseomyces glabratus. The experiment in a line: Antifungal activity against Candida glabrata. In kind it is functional.
Data set [8] deals with Escherichia coli. Put plainly: Antimicrobial activity against Escherichia coli. The format is functional.
The next data set concerns Salmonella typhimurium. Put plainly: Antimicrobial activity against Salmonella typhimurium. As to conditions: Salmonella enterica. The format is functional, Salmonella enterica subsp. enterica serovar Typhimurium.
The subject of data set [9] is Escherichia coli. The experiment in a line: Potency index, ratio of ciprofloxacin MIC to test compound MIC for antimicrobial activity against Escherichia coli. In kind it is functional.
Data set [10] has as its system Bacillus subtilis. The experiment in a line: Potency index, ratio of ciprofloxacin MIC to test compound MIC for antimicrobial activity against Bacillus subtilis. In kind it is functional.
Data set [11] concerns Escherichia coli. Put plainly: Antimicrobial activity against Escherichia coli assessed as zone of inhibition at 600 ug/ml after 24 hrs by disk diffusion method. In kind it is functional. The conditions noted are these: read-out: IZ. (A growth-free zone around the sample is the usual read-out of agar diffusion tests.)
Data set [12] deals with Escherichia coli. The experiment in a line: Antimicrobial activity against Escherichia coli assessed as zone of inhibition at 10 ug/ml. In kind it is functional. The conditions noted are these: read-out: IZ.
The test system of data set [13] is Candida albicans. The experiment in a line: Antifungal activity against Candida albicans assessed as zone of inhibition at 10 ug/ml. The conditions noted are these: read-out: IZ. In kind it is functional.
Data set [14] concerns Staphylococcus aureus. The experiment in a line: Antimicrobial activity against Staphylococcus aureus assessed as zone of inhibition at 10 ug/ml. As to conditions: read-out: IZ. The format is functional.
The test system of data set [15] is Bacillus cereus. Put plainly: Antimicrobial activity against Bacillus cereus assessed as zone of inhibition at 250 ug/ml. The format is functional. As to conditions: read-out: IZ.
The test system of data set [16] is Candida albicans. The experiment in a line: Antifungal activity against Candida albicans assessed as zone of inhibition at 250 ug/ml. In kind it is functional. As to conditions: read-out: IZ.
The test system of data set [17] is Pseudomonas aeruginosa. The experiment in a line: Antimicrobial activity against Pseudomonas aeruginosa assessed as zone of inhibition at 10 ug/ml. In kind it is functional. The conditions noted are these: read-out: IZ.
The test system of the next data set is Aspergillus fumigatus. Put plainly: Antifungal activity against Aspergillus fumigatus assessed as zone of inhibition at 10 ug/ml. As to conditions: read-out: IZ. In kind it is functional.
The subject of data set [18] is Escherichia coli. The experiment in a line: Antimicrobial activity against Escherichia coli assessed as zone of inhibition at 250 ug/ml. In kind it is functional. The conditions noted are these: read-out: IZ.
In data set [19] the test system is Bacillus subtilis. The experiment in a line: Antimicrobial activity against Bacillus subtilis assessed as zone of inhibition at 10 ug/ml. In kind it is functional. As to conditions: read-out: IZ.
Data set [20] deals with Staphylococcus aureus. Put plainly: Antimicrobial activity against Staphylococcus aureus assessed as zone of inhibition at 250 ug/ml. In kind it is functional. As to conditions: read-out: IZ.
Data set [21] has as its system Pseudomonas aeruginosa. Put plainly: Antimicrobial activity against Pseudomonas aeruginosa assessed as zone of inhibition at 250 ug/ml. The conditions noted are these: read-out: IZ. The format is functional.
The next data set concerns Aspergillus niger. The experiment in a line: Antifungal activity against Aspergillus niger assessed as zone of inhibition at 250 ug/ml. The format is functional. As to conditions: read-out: IZ.
A further data set has as its system C6. The experiment in a line: Anticancer activity against rat C6 cells. The format is functional, cell-based.
The test system of another data set is NIH3T3. Put plainly: Cytotoxicity against mouse NIH/3T3 cells assessed as reduction in cell viability. The format is cell-based.
Data set [22] relates to Bacillus cereus. The experiment in a line: Antimicrobial activity against Bacillus cereus. In kind it is functional.
The next data set deals with Aspergillus flavus. Put plainly: Antifungal activity against Aspergillus flavus. The format is functional.
The subject of a further data set is Trichothecium roseum. The experiment in a line: Antifungal activity against Trichothecium roseum. The format is functional.
The test system of data set [23] is Talaromyces purpureogenus. Put plainly: Antifungal activity against Penicillium purpurogenum. The format is functional.

The values below come from ChEMBL document CHEMBL4342421, “Current scenario of tetrazole hybrids for antibacterial activity” (Eur J Med Chem, 2019).

≈ marks a conversion by molar mass, not a printed value.

Regarding `C[C@@H](O)[C@H]1C(=O)N2C(C(=O)O)=C(S[C@@H]3CN[C@H](C(=O)N(C)C)C3)[C@H](C)[C@H]12` [MEROPENEM], the clearance (commonly a measure of how efficiently the substance is removed, as volume per time) in data set [1] is 51.2 mL/min/kg. The compound further had a t1/2 in data set [2] of 3.99 h.

In the case of `C[C@@H](O)[C@H]1C(=O)N2C(C(=O)O)=C(SCCN=CN)C[C@H]12` [IMIPENEM ANHYDROUS], the t1/2 in data set [2] amounted to 3.46 h. For the same compound, the AUC (commonly the area under the concentration-time curve, a measure of exposure) in data set [3] was 5500 ng·h/mL.

For the compound `Cn1c(-c2ccc(NC(=O)CSc3nnnn3-c3ccccc3)cc2)nc2cc(Cl)c(Cl)cc21`, the MIC in the data set with Pseudomonas aeruginosa [4], in the data set with Enterococcus faecalis, against Candida albicans [5], in the data set on Candida tropicalis, in the data set on Proteus vulgaris and in the data set on Bacillus subtilis [6] was 12.5 to 400 µg/mL (≈ 24.5 to 784 µM) each time. Moreover, the minimal inhibitory concentration (MIC) in the data set with Klebsiella pneumoniae, against Listeria monocytogenes, against Staphylococcus aureus [7], against Nakaseomyces glabratus, against Escherichia coli [8] and in the data set on Salmonella typhimurium was 12.5 to 400 µg/mL (≈ 24.5 to 784 µM) in each case.

On to `COc1cccc(OC)c1/C=C1\SC(=O)N(Cc2ccc(-c3ccccc3-c3nnn[nH]3)cc2)C1=O`, for which the Ratio with Escherichia coli [9] and in the data set with Bacillus subtilis [10] was greater than 2.91 in each case. Further, the values for the MIC in the data set on Bacillus subtilis [6] and against Escherichia coli [8] were 8.41 µg/mL (≈ 16.8 µM) and 8.58 µg/mL (≈ 17.2 µM), respectively.

Consider `c1ccc2c(c1)sc1nnnn12`, for which, in the data set on Escherichia coli [11], the zone of inhibition at 600 µg/mL was 15 to 20 mm.

Take `CC(=O)N1CCN(c2ccc(OCC3COC(Cn4ccnc4)(c4ccc(Cl)cc4Cl)O3)cc2)CC1` (stereo unspecified) [KETOCONAZOLE]: the zone of inhibition at 10 µg/mL in the data set with Escherichia coli [12], in the data set with Candida albicans [13], in the data set on Staphylococcus aureus [14], with Pseudomonas aeruginosa [17], with Aspergillus fumigatus and in the data set on Bacillus subtilis [19] was 23 to 24 mm in each case. Further, the zone of inhibition at 250 µg/mL in the data set with Bacillus cereus [15], with Candida albicans [16], in the data set on Escherichia coli [18], in the data set with Staphylococcus aureus [20], in the data set on Pseudomonas aeruginosa [21] and in the data set with Aspergillus niger was 23 to 26 mm in each case. Moreover, the MIC against Candida albicans [5] and in the data set on Bacillus subtilis [6] was 100 µg/mL (≈ 188 µM) in each case.

`O=C(CSc1nnnn1-c1ccccc1)N/N=c1\scc(-c2ccccc2)n1-c1ccccc1`: the IC50 – broadly, the concentration that inhibits the measured activity by half – in the data set with C6 was 8.3 µg/mL (≈ 17.1 µM); with NIH3T3, 417 µg/mL (≈ 858 µM).

Consider `N=C(N)Nc1nnn(Cc2cccc(Cn3nnc(C(=N)N)n3)c2)n1`, for which the MIC (in the data set with Pseudomonas aeruginosa [4]; in the data set with Bacillus cereus [22]; against Bacillus subtilis [6]; in the data set on Aspergillus flavus; against Trichothecium roseum; in data set [23]) was 30 to 40 µg/mL (≈ 87.9 to 117 µM) each time. The MIC (usually the lowest concentration that inhibits growth of the organism) against Escherichia coli [8] lay within 30 to 40 µg/mL (≈ 87.9 to 117 µM).

On to `N=C(N)Nc1nnn(Cc2ccccc2Cn2nnc(C(=N)N)n2)n1`, for which the MIC (in the data set with Pseudomonas aeruginosa [4]; against Bacillus cereus [22]; in the data set with Bacillus subtilis [6]; with Aspergillus flavus; in the data set with Trichothecium roseum; in data set [23]) was 30 to 40 µg/mL (≈ 87.9 to 117 µM) in each case. In addition, the MIC in the data set on Escherichia coli [8] lay within 30 to 40 µg/mL (≈ 87.9 to 117 µM).
